# BindingDB's records for doi:10.1016/j.chembiol.2005.08.008 (Gpc Biotech, 2005)
# pIC50: −log10 of the molar value.
# Legend:
# [1] = biological target: T1, Cyclin-dependent kinase 2/G1/S-specific cyclin-E1 (Homo sapiens, UniProt P24941); assay: Inhibition Assay
# Text: (§1) In vitro kinase activity of PEGylated pyrazolopyrimidone CDK inhibitor or a 5 PEG-amine was coupled to ReactiGel agarose beads (Pierce, No. 20259).
# [2] = biological target: T2, Cyclin-dependent kinase 4/G1/S-specific cyclin-D1 (Homo sapiens, UniProt P11802); assay: Inhibition Assay
# T2 sequence (P11802 whole entry): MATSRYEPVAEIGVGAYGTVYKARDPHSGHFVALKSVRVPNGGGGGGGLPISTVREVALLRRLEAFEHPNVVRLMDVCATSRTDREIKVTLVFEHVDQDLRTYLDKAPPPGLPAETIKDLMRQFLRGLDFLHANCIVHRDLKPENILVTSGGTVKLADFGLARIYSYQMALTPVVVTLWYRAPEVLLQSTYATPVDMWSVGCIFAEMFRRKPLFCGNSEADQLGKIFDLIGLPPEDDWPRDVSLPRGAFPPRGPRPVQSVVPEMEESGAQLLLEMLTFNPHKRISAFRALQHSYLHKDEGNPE
# T2 sequence (P24385 whole entry, further chain): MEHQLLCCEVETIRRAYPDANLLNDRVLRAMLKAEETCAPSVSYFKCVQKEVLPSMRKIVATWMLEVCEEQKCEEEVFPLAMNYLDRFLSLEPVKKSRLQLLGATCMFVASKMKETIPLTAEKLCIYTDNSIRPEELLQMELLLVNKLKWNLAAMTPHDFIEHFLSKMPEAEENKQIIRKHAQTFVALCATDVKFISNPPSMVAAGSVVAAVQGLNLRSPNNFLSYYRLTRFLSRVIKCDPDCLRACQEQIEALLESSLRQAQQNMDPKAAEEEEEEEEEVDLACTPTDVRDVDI
# Text: as §1
# [3] = biological target: T3, Cyclin-dependent kinase/G2/mitotic-specific cyclin- 1 (Homo sapiens, UniProt P06493); assay: Inhibition Assay
# T3 sequence (P06493 whole entry): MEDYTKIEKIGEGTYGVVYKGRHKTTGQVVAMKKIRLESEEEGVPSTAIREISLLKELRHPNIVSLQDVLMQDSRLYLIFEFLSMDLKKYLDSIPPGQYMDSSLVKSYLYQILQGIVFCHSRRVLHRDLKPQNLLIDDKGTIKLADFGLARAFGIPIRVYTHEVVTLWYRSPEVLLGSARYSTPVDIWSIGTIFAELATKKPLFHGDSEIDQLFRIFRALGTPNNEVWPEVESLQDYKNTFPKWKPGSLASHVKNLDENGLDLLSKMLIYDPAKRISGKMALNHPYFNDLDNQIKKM
# T3 sequence (P14635 whole entry, further chain): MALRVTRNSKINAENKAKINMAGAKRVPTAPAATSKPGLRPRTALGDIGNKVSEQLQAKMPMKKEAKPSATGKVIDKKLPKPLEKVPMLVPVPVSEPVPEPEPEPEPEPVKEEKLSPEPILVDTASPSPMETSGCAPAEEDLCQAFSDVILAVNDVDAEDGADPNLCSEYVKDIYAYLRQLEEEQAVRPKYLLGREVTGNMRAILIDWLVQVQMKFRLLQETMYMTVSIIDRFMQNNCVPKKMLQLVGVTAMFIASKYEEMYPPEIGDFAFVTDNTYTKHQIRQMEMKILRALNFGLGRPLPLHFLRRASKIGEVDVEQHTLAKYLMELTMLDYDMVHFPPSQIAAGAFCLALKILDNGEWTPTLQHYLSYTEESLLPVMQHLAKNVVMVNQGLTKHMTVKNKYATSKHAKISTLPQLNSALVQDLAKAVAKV
# Text: as §1
# [4] = biological target: T3, Cyclin-dependent kinase/G2/mitotic-specific cyclin- 1; assay: Cell Proliferation Assay
# Text: Inhibition of HCT116 cell proliferation with compounds using calcein AM Assay.
# [5] = biological target: T1, Cyclin-dependent kinase 2/G1/S-specific cyclin-E1; assay: In Vitro Kinase Assay
# Text: (§2) Inhibition of in vitro kinase activity of purified CDKs.
# [6] = biological target: T2, Cyclin-dependent kinase 4/G1/S-specific cyclin-D1; assay: In Vitro Kinase Assay
# Text: as §2
# [7] = biological target: T3, Cyclin-dependent kinase/G2/mitotic-specific cyclin- 1; assay: In Vitro Kinase Assay
# Text: as §2
# [8] = biological target: T3, Cyclin-dependent kinase/G2/mitotic-specific cyclin- 1; assay: Cell Proliferation Assay; remark: listed apart in the source
# Protocol: Inhibition of HCT116 cell proliferation after 72hr of incubation with compounds was determined by SRB Assay.
# [9] = biological target: T4, CDK-activating kinase assembly factor MAT1 (Homo sapiens, UniProt P51948); assay: In Vitro Kinase Assay
# T4 sequence (P51948 whole entry): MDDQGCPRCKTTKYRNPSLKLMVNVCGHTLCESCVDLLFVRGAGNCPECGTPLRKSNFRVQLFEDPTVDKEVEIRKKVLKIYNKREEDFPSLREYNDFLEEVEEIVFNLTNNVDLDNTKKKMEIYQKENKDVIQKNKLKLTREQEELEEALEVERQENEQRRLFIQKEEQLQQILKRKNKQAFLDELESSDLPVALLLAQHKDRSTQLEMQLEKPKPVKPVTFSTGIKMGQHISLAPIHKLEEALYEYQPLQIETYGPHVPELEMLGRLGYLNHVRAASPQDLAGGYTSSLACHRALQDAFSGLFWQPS
# Text: as §2
# CDK3/Cyclin E = CDK3/Cyclin E (Homo sapiens, UniProt Q00526); assay: In Vitro Kinase Assay
# Chain of CDK3/Cyclin E (P24864 whole entry): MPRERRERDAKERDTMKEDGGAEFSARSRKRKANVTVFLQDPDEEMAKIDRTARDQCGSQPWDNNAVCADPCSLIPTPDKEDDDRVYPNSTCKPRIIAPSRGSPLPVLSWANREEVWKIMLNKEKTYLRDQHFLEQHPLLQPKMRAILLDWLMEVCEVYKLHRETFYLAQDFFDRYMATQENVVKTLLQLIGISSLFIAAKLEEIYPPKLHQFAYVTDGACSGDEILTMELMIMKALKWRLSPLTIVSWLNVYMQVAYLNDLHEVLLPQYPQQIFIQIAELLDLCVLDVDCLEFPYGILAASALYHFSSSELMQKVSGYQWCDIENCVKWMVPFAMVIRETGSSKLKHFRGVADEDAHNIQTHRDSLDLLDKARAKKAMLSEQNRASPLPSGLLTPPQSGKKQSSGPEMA
# Chain of CDK3/Cyclin E (Q00526 whole entry): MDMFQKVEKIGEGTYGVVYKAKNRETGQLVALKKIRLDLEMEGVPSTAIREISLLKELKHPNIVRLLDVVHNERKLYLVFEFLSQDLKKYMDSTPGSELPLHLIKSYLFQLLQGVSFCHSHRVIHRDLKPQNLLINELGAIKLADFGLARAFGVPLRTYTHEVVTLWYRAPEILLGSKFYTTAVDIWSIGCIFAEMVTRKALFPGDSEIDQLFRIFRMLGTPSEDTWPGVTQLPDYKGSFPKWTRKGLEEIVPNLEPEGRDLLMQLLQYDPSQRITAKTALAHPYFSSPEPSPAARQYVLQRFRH
# Text: as §2
# [10] = biological target: Cyclin-dependent kinase 5 (Homo sapiens, UniProt Q00535); assay: In Vitro Kinase Assay
# Chain of Cyclin-dependent kinase 5 (Q00535 whole entry): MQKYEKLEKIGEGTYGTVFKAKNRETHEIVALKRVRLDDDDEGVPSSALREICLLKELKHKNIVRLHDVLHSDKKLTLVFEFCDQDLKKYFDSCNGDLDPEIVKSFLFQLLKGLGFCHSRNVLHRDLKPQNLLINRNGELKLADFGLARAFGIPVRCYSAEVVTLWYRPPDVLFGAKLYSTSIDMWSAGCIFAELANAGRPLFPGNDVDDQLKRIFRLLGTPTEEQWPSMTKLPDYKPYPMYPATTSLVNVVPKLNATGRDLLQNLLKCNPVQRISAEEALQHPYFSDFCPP
# Text: as §2
# [11] = biological target: Cyclin-dependent kinase 6/G1/S-specific cyclin-D3 (Homo sapiens, UniProt Q00534); assay: In Vitro Kinase Assay
# Chain of Cyclin-dependent kinase 6/G1/S-specific cyclin-D3 (Q00534 whole entry): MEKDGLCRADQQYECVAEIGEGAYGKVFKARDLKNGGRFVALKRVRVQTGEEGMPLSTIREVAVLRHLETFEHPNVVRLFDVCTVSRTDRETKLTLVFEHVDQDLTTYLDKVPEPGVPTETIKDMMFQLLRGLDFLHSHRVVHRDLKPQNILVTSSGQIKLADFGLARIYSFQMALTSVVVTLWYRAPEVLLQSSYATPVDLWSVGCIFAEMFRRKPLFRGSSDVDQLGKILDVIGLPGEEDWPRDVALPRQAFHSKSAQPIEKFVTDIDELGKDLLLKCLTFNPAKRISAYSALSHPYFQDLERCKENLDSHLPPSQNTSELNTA
# Chain of Cyclin-dependent kinase 6/G1/S-specific cyclin-D3 (P30281 whole entry, further chain): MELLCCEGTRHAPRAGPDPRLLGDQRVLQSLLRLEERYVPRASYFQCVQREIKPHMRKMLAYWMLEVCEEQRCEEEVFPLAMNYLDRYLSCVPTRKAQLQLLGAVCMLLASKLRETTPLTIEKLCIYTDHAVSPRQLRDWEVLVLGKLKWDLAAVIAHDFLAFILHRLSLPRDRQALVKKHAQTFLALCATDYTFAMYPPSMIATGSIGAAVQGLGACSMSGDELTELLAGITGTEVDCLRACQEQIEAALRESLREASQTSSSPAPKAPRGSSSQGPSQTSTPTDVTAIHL
# Text: as §2
# [12] = biological target: Glycogen synthase kinase-3 beta (Homo sapiens, UniProt P49841); assay: In Vitro Kinase Assay
# Chain of Glycogen synthase kinase-3 beta (P49841 whole entry): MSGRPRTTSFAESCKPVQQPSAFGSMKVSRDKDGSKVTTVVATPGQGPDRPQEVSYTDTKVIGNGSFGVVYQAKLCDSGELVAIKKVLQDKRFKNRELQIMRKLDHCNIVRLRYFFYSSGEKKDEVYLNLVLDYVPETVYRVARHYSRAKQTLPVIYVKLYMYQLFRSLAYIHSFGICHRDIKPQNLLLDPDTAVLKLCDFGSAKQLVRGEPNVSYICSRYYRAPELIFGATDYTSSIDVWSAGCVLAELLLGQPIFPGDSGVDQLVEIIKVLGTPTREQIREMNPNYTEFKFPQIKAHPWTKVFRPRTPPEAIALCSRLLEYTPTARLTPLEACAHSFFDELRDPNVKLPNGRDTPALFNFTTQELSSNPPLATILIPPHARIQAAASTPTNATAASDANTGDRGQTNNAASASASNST
Compound,pIC50 [5],pIC50 [6],pIC50 [7],pIC50 [8],further results
"COCCOCCOCCOc1ccc(Cc2nc3c(c(C(C)C)nn3-c3c(Cl)cccc3Cl)c(=O)[nH]2)cc1 [PEGylated derivative, RGB-286276]",,,,,pIC50 [1]: 7.66; pIC50 [2]: 6.05; pIC50 [3]: 7.08; pIC50 [4]: 7.47
"COc1ccc(Cc2nc3c(c(C(C)C)nn3-c3c(Cl)cc(Cl)cc3Cl)c(=O)[nH]2)cc1 [Pyrazolopyrimidone analog, RGB-285940]",8.15,6.07,6.64,6.39,
"CC(C)c1nn(-c2c(Cl)cccc2Cl)c2nc(Cc3ccc(OCCN4CCOCC4)cc3)[nH]c(=O)c12 [Pyrazolopyrimidone analog, RGB-285960]",8.05,5.76,6.51,7.19,
"CC(C)c1nn(-c2c(Cl)cccc2Cl)c2nc(Cc3ccc(OCCO)cc3)[nH]c(=O)c12 [Pyrazolopyrimidone analog, RGB-286147]",7.82,6.08,7.32,7.29,pIC50 [9]: 7.15; pIC50 (CDK3/Cyclin E): 8.05; pIC50 [10]: 8.00; pIC50 [11]: 6.55; pIC50 [12]: 6.12
"COc1ccc(Cc2nc3c(c(C(C)C)nn3-c3c(Cl)cccc3Cl)c(=O)[nH]2)cc1 [Pyrazolopyrimidone analog, RGB-286331]",8.40,,7.37,6.66,
"COc1ccc(Cc2nc3c(cnn3-c3c(Cl)cc(Cl)cc3Cl)c(=O)[nH]2)cc1 [Pyrazolopyrimidone analog, RGB-310590]",,,,5.26,
"COc1ccc(Cc2nc3c(c(Cc4ccccc4)nn3-c3c(Cl)cc(Cl)cc3Cl)c(=O)[nH]2)cc1 [Pyrazolopyrimidone analog, RGB-310591]",,,,< 5.00,
"COc1ccc(Cc2nc3n[nH]c(C(C)C)c3c(=O)[nH]2)cc1 [Pyrazolopyrimidone analog, RGB-310595]",,,,< 5.00,
"COc1ccc(Cc2nc3c(c(C(C)C)nn3-c3ccccc3)c(=O)[nH]2)cc1 [Pyrazolopyrimidone analog, RGB-310596]",,,,< 5.00,
